Measurements as given in patent US20170360013A1, “ANIMAL MODEL FOR DRY EYE AND METHODS OF USE OF SUCH ANIMALS” (REGENERON PHARMACEUTICALS, INC., priority 2014, published 2017).

What was measured:
[1] = test system: C57BL/6 mice; assay: Tear production measurement (phenol red thread) in dry eye model induction; assay type: in vivo, mouse; settings: over four weeks of administration; Scop 2 mg/20 g body weight/day by s.c. osmotic pump; BAC 1 μl of 0.1-0.2% topical, twice daily, 2 days per week; relative to controls or BAC alone; p<0.001
Procedure: (§1) Dry eye model induction: 27 adult, male C57BL/6 mice were randomized to naïve (untreated), sham (receiving surgery equivalent to surgery for implantation of pump, but without actual implantation of pump and without scopolamine or BAC treatment), benzalkonium chloride (BAC), scopolamine (Scop) or BAC plus Scop groups.
(§2) Implantation of scopolamine pump. For Scop group, mice were subcutaneously implanted with an osmotic pump filled with Scop (2 mg/20 g body weight/day) lasting for 4 weeks. Mice were anesthetized with ketamine (120 mg/kg, IP) and xylazine (5 mg/kg, IP). Using aseptic microsurgical technique and an operating microscope, a mini-osmotic pump was placed beneath the back skin, then the skin was sutured, and erythromycin ophthalmic ointment was applied to the wound to prevent infection.
(§3) Benzalkonium chloride treatment. For BAC treatment, 1 μl of 0.1-0.2% BAC was topically administrated on the right eye ocular surface, twice daily, 2 days per week, for four weeks.
Tear production measurement and corneal fluorescein staining score. Tear production and corneal fluorescein staining were performed once per week, on day 7, 14, 21, and 28. […] Five minutes after application, corneal fluorescein staining was scored under a microscope using the National Eye Institute (NEI) scoring standards.

[2] = test system: C57BL/6 mice; assay: Flow cytometry of extraorbital lacrimal glands (CD45+ immune cell infiltration); assay type: in vivo, mouse; settings: after 4 weeks of treatment; relative to controls
Procedure: as §1, §2, §3
Quantification of corneal angiogenesis, lymphangiogenesis and lacrimal gland infiltration. On day 28 after induction of dry eye, under deep ketamine (120 mg/kg, IP) and xylazine (5 mg/kg, IP) anesthesia, eyeballs were collected in 4% paraformaldehyde (PFA) for corneal angiogenesis and lymphangiogenesis studies. […]
Flow cytometry. […] Data was analyzed by FlowJo (Tree Star, Ashland, Oreg.).

| Compound | tear production [1] | percent of CD45+ cells in extraorbital lacrimal glands [2] |
| --- | --- | --- |
| CN1[C@@H]2C[C@@H](OC(=O)[C@H](CO)c3ccccc3)C[C@H]1[C@@H]1O[C@@H]12 [Scop, scopolamine] | significantly decreases | increased |
| benzalkonium chloride [BAC] |  | increased |
